Test results from patent US20240107999A1, “ANTIBACTERIAL COMPOSITION” (LG CHEM, LTD., priority 2021, published 2024).

Columns and labels:
[1] = Acute oral toxicity dose LD50 by 3T3 Neutral Red Uptake (NRU) assay (OECD Guidance Document No 129); assay type: cell-based; settings: mouse, 3T3 cells, po, calculated from 3T3 NRU assay
Method: (§1) The acute oral toxicity dose LD50 and acute percutaneous toxicity dose LD50 were measured by 3T3 Neutral Red Uptake (NRU) assay (OECD Guidance Document No 129). Specifically, the acute oral toxicity dose LD50 and acute percutaneous toxicity dose LD50 can be calculated by the following method: […]

[2] = Acute percutaneous toxicity dose LD50 by 3T3 Neutral Red Uptake (NRU) assay (OECD Guidance Document No 129); assay type: cell-based; settings: mouse, 3T3 cells, other: percutaneous, calculated from 3T3 NRU assay
Method: as §1

[3] = tested on: P. mirabilis (ATCC29906); assay: Time at which 99.9% of the antibacterial strength is confirmed (Methods 1 to 4); assay type: cell-based, Proteus mirabilis; settings: for Time at which 99.9% of the antibacterial strength is confirmed, Method 2: amount of antibacterial composition added 0.005 g; for Time at which 99.9% of the antibacterial strength is confirmed, Method 4: amount of antibacterial composition added 0.01 g; for Time at which 99.9% of the antibacterial strength is confirmed, Method 1: amount of antibacterial composition added 0.015 g; for Time at which 99.9% of the antibacterial strength is confirmed, Method 3: amount of antibacterial composition added 0.02 g
Method: (§2) After 25 ml of a broth-type medium (Nutrient broth, BD DIFCO., 8 g/L) inoculated with 3,000 CFU/ml bacteria is put into a 50 mL conical tube, 0.015 g of the antibacterial composition is added thereto and suspended (by vortexing), a sufficiently mixed solution is incubated for 16 hours in a shaking water bath maintained at 35° C.
(§3) After the incubated solution was diluted to ⅕ using a 1×PBS buffer solution, absorbance (λ=600 nm) was measured using a UV/Vis spectrophotometer, and the antibacterial strength, which is a bacteriostatic reduction rate, is calculated by the following equation by comparing the measured absorbance with a solution incubated without the addition of the antibacterial composition.
(§4) Antibacterial strength(%)=(1−Asample/AReference)×100 • Asample=Absorbance of medium solution incubated by adding antibacterial composition • AReference=Absorbance of medium solution incubated without addition of antibacterial composition
(§5) This method is the same as Method 1, except that 0.005 g of the antibacterial composition is added instead of 0.015 g of the antibacterial composition.
(§6) This method is the same as Method 1, except that 0.02 g of the antibacterial composition is added instead of 0.015 g of the antibacterial composition.
(§7) This method is the same as Method 1, except that 0.01 g of the antibacterial composition is added instead of 0.015 g of the antibacterial composition.
The time at which 99.9% of the antibacterial strength of Monomers 1 to 10 and Comparative Monomers 1 and 2 is confirmed is shown in the following Table 2.

[4] = tested on: P. mirabilis (ATCC29906); assay: Antibacterial strength (bacteriostatic reduction rate) by Methods 1 to 4, broth culture absorbance at 600 nm; assay type: cell-based; settings: Proteus mirabilis, 16 hours, 35° C.; for inhibition of growth at 200 µg/mL: amount of antibacterial composition added 0.005 g in 25 ml broth, 3,000 CFU/ml, read-out: Antibacterial strength (%) Method 2; for inhibition of growth at 400 µg/mL: amount of antibacterial composition added 0.01 g in 25 ml broth, 3,000 CFU/ml, read-out: Antibacterial strength (%) Method 4; for inhibition of growth at 600 µg/mL: amount of antibacterial composition added 0.015 g in 25 ml broth, 3,000 CFU/ml, read-out: Antibacterial strength (%) Method 1; for inhibition of growth at 800 µg/mL: amount of antibacterial composition added 0.02 g in 25 ml broth, 3,000 CFU/ml, read-out: Antibacterial strength (%) Method 3
Method: as §2, §3, §4, §5, §6, §7
The antibacterial strength of Monomers 1 to 10 and Comparative Monomers 1 and 2 by Methods 1 to 4 was measured, and is shown in the following Table 1. In this case, the P. mirabilis (ATCC29906) bacteria were used.

[5] = tested on: 3T3; assay: Acute oral toxicity dose LD50 by 3T3 Neutral Red Uptake (NRU) assay (OECD Guidance Document No 129); assay type: cell-based; settings: calculated from 3T3 NRU assay
Method: as §1

Row | SMILES | LD50 [1] | LD50 [2] | Time at which 99.9% of the antibacterial strength is confirmed, Method 2 [3] | Time at which 99.9% of the antibacterial strength is confirmed, Method 4 [3] | Time at which 99.9% of the antibacterial strength is confirmed, Method 1 [3] | Time at which 99.9% of the antibacterial strength is confirmed, Method 3 [3] | inhibition of growth at 200 µg/mL [4] | inhibition of growth at 400 µg/mL [4] | inhibition of growth at 600 µg/mL [4] | Acute oral toxicity dose (mg/Kg) LD50 [5] | inhibition of growth at 800 µg/mL [4]
1 | C=CC(=O)OCC[N+](CCCC)(CCCC)CCCCCCCCCCCC [Monomer 3] | 843 mg/kg | ≥ 2000 mg/kg | Within 1 hour | Within 1 hour | Within 1 hour | Within 1 hour | 99.9% | 99.9% | 99.9% |  | 
2 | C=C(C)C(=O)OCC[N+](CCCCCC)(CCCCCC)CCCCCCCCCC [Monomer 5] | ≥ 1000 mg/kg | ≥ 2000 mg/kg | Within 1 hour | Within 1 hour | Within 1 hour | Within 1 hour | 99.9% | 99.9% | 99.9% | 1,078 mg/Kg | 99.9%
3 | C=CC(=O)OCC[N+](CCCCCCCC)(CCCCCCCC)CCCCCCCC [Monomer 4] | ≥ 1000 mg/kg | ≥ 2000 mg/kg | Within 1 hour | Within 1 hour | Within 1 hour | Within 1 hour | 99.9% | 99.9% | 99.9% | 1,442 mg/Kg | 99.9%
4 | C=CC(=O)OCC[N+](CCCCCCCCCCCCCC)(CCCCCCCCCCCCCC)CCCCCCCCCCCCCC [Comparative Monomer 2, reference compound] | 231 mg/kg |  | Within 1 hour | Within 1 hour | Within 1 hour | Within 1 hour | 99.9% | 99.9% | 99.9% |  | 99.9%
5 | C=CC(=O)OCC[N+](CCCC)(CCCC)CCCCCCCCCC [Monomer 2] | ≥ 1000 mg/kg | ≥ 2000 mg/kg | Within 1 hour | Within 1 hour | Within 1 hour | Within 1 hour | 99.9% | 99.9% | 99.9% | 1,369 mg/Kg | 99.9%
6 | C=C(C)C(=O)OCC[N+](CCCC)(CCCCCC)CCCCCCCCCC (centres unmarked) [Monomer 6] | ≥ 1000 mg/kg | ≥ 2000 mg/kg | Within 1 hour | Within 1 hour | Within 1 hour | Within 1 hour | 99.9% | 99.9% | 99.9% | 1,111 mg/Kg | 99.9%
7 | C=C(C)C(=O)OCC[N+](CCCC)(CCCCCCCC)CCCCCCCCCC (centres unmarked) [Monomer 7] | 998 mg/kg | ≥ 2000 mg/kg | Within 1 hour | Within 1 hour | Within 1 hour | Within 1 hour | 99.9% | 99.9% | 99.9% |  | 99.9%
8 | C=CC(=O)OCCCC[N+](CCCCCCCC)(CCCCCCCC)CCCCCCCC [Monomer 10] | ≥ 1000 mg/kg | ≥ 2000 mg/kg | Within 1 hour | Within 1 hour | Within 1 hour | Within 1 hour | 99.9% | 99.9% | 99.9% | 1,242 mg/Kg | 99.9%
9 | C=CC(=O)OCC[N+](CCCC)(CCCC)CCCCCCCC [Monomer 1] | ≥ 1000 mg/kg | ≥ 2000 mg/kg |  |  | Within 1 hour | Within 1 hour | 59.3% | 68.2% | 99.9% | 1,708 mg/Kg | 99.9%
10 | C=C(C)C(=O)OCC[N+](CCCC)(CCCCCCCCCC)CCCCCCCCCC [Monomer 8] | 869 mg/kg | ≥ 2000 mg/kg | Within 1 hour | Within 1 hour | Within 1 hour | Within 1 hour | 99.9% | 99.9% | 99.9% |  | 99.9%
11 | C=CC(=O)OCCCC[N+](CCCC)(CCCC)CCCCCCCC [Monomer 9] | ≥ 1000 mg/kg | ≥ 2000 mg/kg |  |  | Within 1 hour | Within 1 hour | 61.2% | 70% | 99.9% | 1,498 mg/Kg | 99.9%
12 | C=CC(=O)OCC[N+](CCCC)(CCCC)CCCCCC [Comparative Monomer 1, reference compound] | 2360 mg/kg |  |  |  |  |  | 22.6% | 30.7% | 38.8% |  | 46.9%
